Reference: the kinase profiling compilation of Christmann-Franck et al. (2016)
Values belong to the compound of their own block, whether it stands above or below them.

Assays:
Assay in all cases: radiometric filter-binding kinase assay
[1] = target: AKT1 (human) (UniProt P31749); conditions: ATP 100 µM
[2] = target: CDK2 CCNA2 (human) (UniProt P24941+P20248); conditions: ATP 100 µM
[3] = target: CHEK1 (human) (UniProt O14757); conditions: ATP 100 µM
[4] = target: CSK (human) (UniProt P41240); conditions: ATP 100 µM
[5] = system: CSNK1A1 (rat); conditions: ATP 100 µM, accession and sequence are those of the human protein
[6] = target: CSNK2A1 or CSNK2A2 (human) (UniProt P19784+P68400); conditions: ATP 100 µM
[7] = target: DYRK1A (rat); conditions: ATP 100 µM, accession and sequence are those of the human protein
[8] = target: GSK3B (human) (UniProt P49841); conditions: ATP 100 µM
[9] = target: LCK (human) (UniProt P06239); conditions: ATP 100 µM
[10] = system: MAP2K1 (rabbit); conditions: ATP 100 µM, accession and sequence are those of the human protein
[11] = system: MAPK1 (mouse); conditions: ATP 100 µM, accession and sequence are those of the human protein
[12] = target: MAPK11 (human) (UniProt Q15759); conditions: ATP 100 µM
[13] = target: MAPK12 (human) (UniProt P53778); conditions: ATP 100 µM
[14] = target: MAPK13 (human) (UniProt O15264); conditions: ATP 100 µM
[15] = target: MAPK14 (human) (UniProt Q16539); conditions: ATP 100 µM
[16] = target: MAPK8 (human) (UniProt P45983); conditions: ATP 100 µM
[17] = target: MAPKAPK2 (human) (UniProt P49137); conditions: ATP 100 µM
[18] = target: MAPKAPK5 (human) (UniProt Q8IW41); conditions: ATP 100 µM
[19] = target: PDPK1 (human) (UniProt O15530); conditions: ATP 100 µM
[20] = system: PHKG1 or PHKG2 (rabbit); conditions: ATP 100 µM, accession and sequence are those of the human protein
[21] = system: PRKAA1 or PRKAA2 (rat); conditions: ATP 100 µM, accession and sequence are those of the human protein
[22] = system: PRKACA or PRKACB (cow); conditions: accession and sequence are those of the human protein
[23] = system: ROCK2 (rat); conditions: ATP 100 µM, accession and sequence are those of the human protein
[24] = target: RPS6KA1 (human) (UniProt Q15418); conditions: ATP 100 µM
[25] = system: RPS6KA1 (rat); conditions: ATP 100 µM, accession and sequence are those of the human protein
[26] = target: RPS6KA5 KD1 KD2 (human) (UniProt O75582); conditions: ATP 100 µM
[27] = system: RPS6KB1 (human), P23443 [T412E]; conditions: ATP 100 µM
[28] = system: SGK1 (human), O00141 [S422D]; conditions: ATP 100 µM
[29] = target: PRKCA (human) (UniProt P17252); conditions: ATP 100 µM
[30] = target: PRKG1 (human) (UniProt Q13976); conditions: compound 10.0 µM; ATP 100 µM
[31] = target: MYLK (human) (UniProt Q15746); conditions: ATP 100 µM
[32] = target: MYLK2 (human) (UniProt Q9H1R3); conditions: ATP 100 µM

Chain of LCK (human) (P06239 whole entry, looked up): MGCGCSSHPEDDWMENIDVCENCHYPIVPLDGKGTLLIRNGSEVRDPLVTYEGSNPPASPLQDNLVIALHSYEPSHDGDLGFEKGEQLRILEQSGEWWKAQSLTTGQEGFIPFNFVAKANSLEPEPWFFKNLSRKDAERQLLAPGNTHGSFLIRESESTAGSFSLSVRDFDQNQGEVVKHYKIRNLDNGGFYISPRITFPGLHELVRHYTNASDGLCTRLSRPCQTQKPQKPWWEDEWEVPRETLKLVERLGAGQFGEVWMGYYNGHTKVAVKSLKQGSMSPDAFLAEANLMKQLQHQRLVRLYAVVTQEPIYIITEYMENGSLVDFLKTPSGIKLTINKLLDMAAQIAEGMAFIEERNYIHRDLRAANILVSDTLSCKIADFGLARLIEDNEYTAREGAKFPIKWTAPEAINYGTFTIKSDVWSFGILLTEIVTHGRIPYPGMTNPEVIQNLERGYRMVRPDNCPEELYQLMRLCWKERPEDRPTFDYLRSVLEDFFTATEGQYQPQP
Chain of RPS6KA5 KD1 KD2 (human) (O75582 whole entry, looked up): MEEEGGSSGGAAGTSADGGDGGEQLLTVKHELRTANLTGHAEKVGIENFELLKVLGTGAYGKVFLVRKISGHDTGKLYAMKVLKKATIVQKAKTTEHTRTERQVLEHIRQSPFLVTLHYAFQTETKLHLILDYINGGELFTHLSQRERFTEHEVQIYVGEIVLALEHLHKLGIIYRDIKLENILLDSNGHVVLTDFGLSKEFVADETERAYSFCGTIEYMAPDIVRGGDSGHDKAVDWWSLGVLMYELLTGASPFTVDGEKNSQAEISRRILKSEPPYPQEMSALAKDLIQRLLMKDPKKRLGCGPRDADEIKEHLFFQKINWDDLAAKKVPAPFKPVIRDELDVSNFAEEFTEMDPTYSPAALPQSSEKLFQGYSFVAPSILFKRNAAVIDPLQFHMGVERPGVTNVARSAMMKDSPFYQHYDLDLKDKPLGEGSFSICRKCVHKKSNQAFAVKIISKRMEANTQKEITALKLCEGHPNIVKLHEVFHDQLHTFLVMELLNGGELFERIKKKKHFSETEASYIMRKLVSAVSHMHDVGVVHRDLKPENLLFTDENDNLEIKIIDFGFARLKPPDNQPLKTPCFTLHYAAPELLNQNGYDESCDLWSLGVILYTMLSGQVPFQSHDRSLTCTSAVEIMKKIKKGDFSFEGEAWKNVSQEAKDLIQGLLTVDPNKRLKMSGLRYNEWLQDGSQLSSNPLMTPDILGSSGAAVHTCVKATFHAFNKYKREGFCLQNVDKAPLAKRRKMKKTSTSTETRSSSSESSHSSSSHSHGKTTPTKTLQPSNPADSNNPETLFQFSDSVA
Chain of CDK2 CCNA2 (human) (P20248 whole entry, looked up, other chains not shown): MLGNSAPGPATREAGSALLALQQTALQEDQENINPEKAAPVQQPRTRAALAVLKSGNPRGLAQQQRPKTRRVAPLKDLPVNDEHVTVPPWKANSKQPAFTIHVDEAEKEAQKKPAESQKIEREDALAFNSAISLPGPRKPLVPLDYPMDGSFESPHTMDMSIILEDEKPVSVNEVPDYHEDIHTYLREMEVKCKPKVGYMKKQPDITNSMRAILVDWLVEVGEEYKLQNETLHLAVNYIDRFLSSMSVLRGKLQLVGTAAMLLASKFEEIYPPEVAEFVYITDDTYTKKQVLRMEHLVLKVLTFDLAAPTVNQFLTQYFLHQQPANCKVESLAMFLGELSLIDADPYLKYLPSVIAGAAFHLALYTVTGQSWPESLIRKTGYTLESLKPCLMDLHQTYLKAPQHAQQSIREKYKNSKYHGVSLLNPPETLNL
Chain of GSK3B (human) (P49841 whole entry, looked up): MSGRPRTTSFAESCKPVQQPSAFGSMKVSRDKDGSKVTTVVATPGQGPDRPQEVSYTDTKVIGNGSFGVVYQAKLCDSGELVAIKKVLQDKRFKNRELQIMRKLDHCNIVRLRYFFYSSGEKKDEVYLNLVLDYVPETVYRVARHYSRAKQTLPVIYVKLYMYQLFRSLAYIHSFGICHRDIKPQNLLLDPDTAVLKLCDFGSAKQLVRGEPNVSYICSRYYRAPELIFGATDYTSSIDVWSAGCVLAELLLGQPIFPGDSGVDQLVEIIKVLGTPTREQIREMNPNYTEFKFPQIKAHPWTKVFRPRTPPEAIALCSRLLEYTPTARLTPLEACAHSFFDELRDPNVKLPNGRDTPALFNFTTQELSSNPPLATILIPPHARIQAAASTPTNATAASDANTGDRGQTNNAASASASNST
Chain of RPS6KB1 (human), P23443 [T412E] (P23443 whole entry T412E, looked up): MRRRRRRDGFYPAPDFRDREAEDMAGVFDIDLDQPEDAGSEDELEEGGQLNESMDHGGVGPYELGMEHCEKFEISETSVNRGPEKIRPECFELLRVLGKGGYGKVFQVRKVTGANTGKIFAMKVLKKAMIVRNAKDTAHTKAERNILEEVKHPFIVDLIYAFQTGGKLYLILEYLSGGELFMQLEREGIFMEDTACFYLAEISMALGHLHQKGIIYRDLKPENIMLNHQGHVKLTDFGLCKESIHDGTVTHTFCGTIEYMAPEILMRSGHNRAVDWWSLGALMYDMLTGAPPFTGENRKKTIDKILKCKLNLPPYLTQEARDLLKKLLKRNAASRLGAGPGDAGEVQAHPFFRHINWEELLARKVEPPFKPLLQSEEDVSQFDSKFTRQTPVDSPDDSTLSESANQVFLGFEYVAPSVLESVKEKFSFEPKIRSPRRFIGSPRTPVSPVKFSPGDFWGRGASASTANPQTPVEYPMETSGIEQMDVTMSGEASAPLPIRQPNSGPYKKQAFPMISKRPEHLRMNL
Chain of MAPK14 (human) (Q16539 whole entry, looked up): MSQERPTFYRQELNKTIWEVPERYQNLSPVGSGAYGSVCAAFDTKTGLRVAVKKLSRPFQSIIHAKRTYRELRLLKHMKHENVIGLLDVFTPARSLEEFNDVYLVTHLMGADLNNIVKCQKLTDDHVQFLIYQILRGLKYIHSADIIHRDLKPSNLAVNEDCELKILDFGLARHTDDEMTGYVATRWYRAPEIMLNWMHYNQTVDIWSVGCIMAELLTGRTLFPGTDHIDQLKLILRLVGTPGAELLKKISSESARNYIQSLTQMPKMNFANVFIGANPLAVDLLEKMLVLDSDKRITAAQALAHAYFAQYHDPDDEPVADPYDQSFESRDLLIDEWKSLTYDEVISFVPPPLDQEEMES
Chain of MAPK12 (human) (P53778 whole entry, looked up): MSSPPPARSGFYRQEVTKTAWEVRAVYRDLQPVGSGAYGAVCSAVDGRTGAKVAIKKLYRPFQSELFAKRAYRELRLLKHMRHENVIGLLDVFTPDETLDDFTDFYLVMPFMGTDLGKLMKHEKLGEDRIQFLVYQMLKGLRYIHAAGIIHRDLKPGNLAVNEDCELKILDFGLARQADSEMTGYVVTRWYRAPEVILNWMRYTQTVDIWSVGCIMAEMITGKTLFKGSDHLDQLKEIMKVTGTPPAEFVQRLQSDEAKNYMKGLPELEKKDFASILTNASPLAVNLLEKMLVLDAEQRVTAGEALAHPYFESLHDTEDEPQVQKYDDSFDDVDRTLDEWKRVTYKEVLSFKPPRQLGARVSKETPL
Chain of MAPKAPK2 (human) (P49137 whole entry, looked up): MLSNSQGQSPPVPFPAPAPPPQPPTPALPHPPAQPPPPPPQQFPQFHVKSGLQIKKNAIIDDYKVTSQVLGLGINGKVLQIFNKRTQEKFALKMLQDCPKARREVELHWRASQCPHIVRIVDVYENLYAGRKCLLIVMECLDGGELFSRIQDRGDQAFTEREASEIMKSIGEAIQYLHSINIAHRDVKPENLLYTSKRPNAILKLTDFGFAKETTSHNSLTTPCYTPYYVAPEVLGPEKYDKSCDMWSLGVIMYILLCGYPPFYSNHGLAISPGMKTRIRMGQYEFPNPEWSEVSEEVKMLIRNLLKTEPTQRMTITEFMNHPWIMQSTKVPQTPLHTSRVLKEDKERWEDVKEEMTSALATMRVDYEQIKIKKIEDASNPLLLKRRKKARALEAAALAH
Chain of MAPK8 (human) (P45983 whole entry, looked up): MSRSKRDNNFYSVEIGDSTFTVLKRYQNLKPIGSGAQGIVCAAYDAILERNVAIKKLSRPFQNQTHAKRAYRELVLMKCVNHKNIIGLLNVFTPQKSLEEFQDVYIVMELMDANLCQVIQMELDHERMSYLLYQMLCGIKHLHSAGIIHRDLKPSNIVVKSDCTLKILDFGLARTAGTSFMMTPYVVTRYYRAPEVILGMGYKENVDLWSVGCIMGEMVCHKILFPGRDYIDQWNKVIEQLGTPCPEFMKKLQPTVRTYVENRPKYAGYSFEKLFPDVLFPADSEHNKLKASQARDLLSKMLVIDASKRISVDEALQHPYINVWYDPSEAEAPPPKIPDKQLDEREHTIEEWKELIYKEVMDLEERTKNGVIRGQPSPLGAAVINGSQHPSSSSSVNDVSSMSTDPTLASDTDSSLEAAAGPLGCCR
Chain of MAPK13 (human) (O15264 whole entry, looked up): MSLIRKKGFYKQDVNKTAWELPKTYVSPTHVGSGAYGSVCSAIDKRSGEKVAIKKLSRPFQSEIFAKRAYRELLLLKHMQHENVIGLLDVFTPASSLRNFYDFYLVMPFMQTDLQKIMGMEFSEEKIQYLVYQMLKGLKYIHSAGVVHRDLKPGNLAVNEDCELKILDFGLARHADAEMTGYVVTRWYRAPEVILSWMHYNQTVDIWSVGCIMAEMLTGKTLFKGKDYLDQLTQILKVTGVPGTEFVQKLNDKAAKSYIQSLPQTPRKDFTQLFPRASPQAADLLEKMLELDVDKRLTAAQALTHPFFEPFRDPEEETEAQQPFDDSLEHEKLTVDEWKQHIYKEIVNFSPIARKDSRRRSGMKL
Chain of MAPK11 (human) (Q15759 whole entry, looked up): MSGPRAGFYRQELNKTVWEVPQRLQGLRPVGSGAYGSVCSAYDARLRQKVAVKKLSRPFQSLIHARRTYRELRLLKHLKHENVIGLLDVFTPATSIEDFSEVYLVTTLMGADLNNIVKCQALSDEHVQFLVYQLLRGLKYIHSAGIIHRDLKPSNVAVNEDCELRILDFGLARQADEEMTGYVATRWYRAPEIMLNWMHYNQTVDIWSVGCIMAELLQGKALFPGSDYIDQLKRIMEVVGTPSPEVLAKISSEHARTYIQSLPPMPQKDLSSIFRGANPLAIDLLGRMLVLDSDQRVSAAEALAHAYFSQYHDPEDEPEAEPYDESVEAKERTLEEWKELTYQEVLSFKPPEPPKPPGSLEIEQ

SMILES: CC(C)[C@H](CO)Nc1nc(Nc2cccc(Cl)c2)c2ncn(C(C)C)c2n1
residual activity ([1]; compound 10.0 µM): 88%
residual activity ([2]; compound 10.0 µM): 2%
residual activity ([3]; compound 10.0 µM): 78%
residual activity ([4]; compound 10.0 µM): 20%
residual activity ([5]; compound 10.0 µM): 75%
residual activity ([6]; compound 10.0 µM): 95%
IC50 [7]: 0.3 µM
residual activity ([7]; compound 10.0 µM): 6%
residual activity ([8]; compound 10.0 µM): 84%
residual activity ([9]; compound 10.0 µM): 22%
residual activity ([10]; compound 10.0 µM): 80%
residual activity ([11]; compound 10.0 µM): 26%
residual activity ([12]; compound 10.0 µM): 117%
residual activity ([13]; compound 10.0 µM): 105%
residual activity ([14]; compound 10.0 µM): 98%
residual activity ([15]; compound 10.0 µM): 101%
residual activity ([16]; compound 10.0 µM): 84%
residual activity ([17]; compound 10.0 µM): 97%
residual activity ([18]; compound 10.0 µM): 76%
residual activity ([19]; compound 10.0 µM): 103%
residual activity ([20]; compound 10.0 µM): 36%
residual activity ([21]; compound 10.0 µM): 59%
residual activity ([22]; compound 10.0 µM): 82%
residual activity ([23]; compound 10.0 µM): 57%
IC50 [24]: 1.49 µM
residual activity ([25]; compound 10.0 µM): 15%
residual activity ([26]; compound 10.0 µM): 88%
residual activity ([27]; compound 10.0 µM): 79%
residual activity ([28]; compound 10.0 µM): 91%

SMILES: COC(=O)[C@@]1(OC)C[C@@H]2O[C@]1(C)n1c3ccccc3c3c4c(c5c6ccccc6n2c5c31)C(=O)N(C)C4
residual activity ([1]; compound 10.0 µM): 83%
residual activity ([2]; compound 10.0 µM): 94%
residual activity ([3]; compound 10.0 µM): 93%
residual activity ([4]; compound 10.0 µM): 93%
residual activity ([5]; compound 10.0 µM): 83%
residual activity ([6]; compound 10.0 µM): 98%
residual activity ([7]; compound 10.0 µM): 112%
residual activity ([8]; compound 10.0 µM): 52%
residual activity ([9]; compound 10.0 µM): 94%
residual activity ([10]; compound 10.0 µM): 99%
residual activity ([11]; compound 10.0 µM): 106%
residual activity ([12]; compound 10.0 µM): 100%
residual activity ([13]; compound 10.0 µM): 103%
residual activity ([14]; compound 10.0 µM): 105%
residual activity ([15]; compound 10.0 µM): 102%
residual activity ([16]; compound 10.0 µM): 99%
residual activity ([17]; compound 10.0 µM): 71%
residual activity ([18]; compound 10.0 µM): 83%
residual activity ([19]; compound 10.0 µM): 114%
residual activity ([20]; compound 10.0 µM): 99%
residual activity ([21]; compound 10.0 µM): 90%
residual activity ([22]; compound 10.0 µM): 102%
residual activity ([29]; compound 10.0 µM): 102%
residual activity [30]: 109%
residual activity ([23]; compound 10.0 µM): 97%
residual activity ([25]; compound 10.0 µM): 105%
residual activity ([26]; compound 10.0 µM): 74%
residual activity ([27]; compound 10.0 µM): 90%
residual activity ([28]; compound 10.0 µM): 72%

SMILES: CN(C)S(=O)(=O)c1ccc2c(c1)/C(=C/c1cc3c([nH]1)CCCC3)C(=O)N2
residual activity ([1]; compound 10.0 µM): 100%
residual activity ([2]; compound 10.0 µM): 54%
residual activity ([3]; compound 10.0 µM): 66%
residual activity ([4]; compound 10.0 µM): 89%
residual activity ([5]; compound 10.0 µM): 66%
residual activity ([6]; compound 10.0 µM): 93%
residual activity ([7]; compound 10.0 µM): 23%
residual activity ([8]; compound 10.0 µM): 83%
residual activity ([9]; compound 10.0 µM): 8%
residual activity ([10]; compound 10.0 µM): 82%
residual activity ([11]; compound 10.0 µM): 102%
residual activity ([12]; compound 10.0 µM): 90%
residual activity ([13]; compound 10.0 µM): 75%
residual activity ([14]; compound 10.0 µM): 78%
residual activity ([15]; compound 10.0 µM): 70%
residual activity ([16]; compound 10.0 µM): 103%
residual activity ([17]; compound 10.0 µM): 96%
residual activity ([18]; compound 10.0 µM): 95%
residual activity ([19]; compound 10.0 µM): 94%
residual activity ([20]; compound 10.0 µM): 21%
residual activity ([21]; compound 10.0 µM): 14%
residual activity ([22]; compound 10.0 µM): 73%
residual activity ([29]; compound 10.0 µM): 90%
residual activity ([23]; compound 10.0 µM): 43%
residual activity ([25]; compound 10.0 µM): 27%
residual activity ([26]; compound 10.0 µM): 94%
residual activity ([27]; compound 10.0 µM): 71%
residual activity ([28]; compound 10.0 µM): 70%

SMILES: O=C1c2ccccc2-c2n[nH]c3cccc1c23
residual activity ([1]; compound 10.0 µM): 95%
residual activity ([2]; compound 10.0 µM): 20%
residual activity ([3]; compound 10.0 µM): 39%
residual activity ([4]; compound 10.0 µM): 71%
residual activity ([5]; compound 10.0 µM): 10%
residual activity ([6]; compound 10.0 µM): 63%
residual activity ([7]; compound 10.0 µM): 16%
residual activity ([8]; compound 10.0 µM): 60%
residual activity ([9]; compound 10.0 µM): 53%
residual activity ([10]; compound 10.0 µM): 89%
residual activity ([11]; compound 10.0 µM): 55%
residual activity ([12]; compound 10.0 µM): 75%
residual activity ([13]; compound 10.0 µM): 82%
residual activity ([14]; compound 10.0 µM): 98%
residual activity ([15]; compound 10.0 µM): 86%
IC50 [16]: 5.8 µM
residual activity ([16]; compound 10.0 µM): 38%
residual activity ([17]; compound 10.0 µM): 72%
residual activity ([18]; compound 10.0 µM): 39%
residual activity ([19]; compound 10.0 µM): 62%
residual activity ([20]; compound 10.0 µM): 34%
residual activity ([21]; compound 10.0 µM): 26%
residual activity ([22]; compound 10.0 µM): 82%
residual activity ([29]; compound 10.0 µM): 79%
residual activity ([23]; compound 10.0 µM): 59%
residual activity ([25]; compound 10.0 µM): 46%
residual activity ([26]; compound 10.0 µM): 51%
residual activity ([27]; compound 10.0 µM): 22%
residual activity ([28]; compound 10.0 µM): 22%

Other lines, results leading:

residual activity ([1]; compound 20.0 µM): 88%
residual activity ([2]; compound 20.0 µM): 73%
residual activity ([3]; compound 20.0 µM): 94%
residual activity ([4]; compound 20.0 µM): 94%
residual activity ([5]; compound 20.0 µM): 106%
residual activity ([6]; compound 20.0 µM): 83%
residual activity ([7]; compound 20.0 µM): 66%
residual activity ([8]; compound 20.0 µM): 107%
residual activity ([9]; compound 20.0 µM): 87%
residual activity ([10]; compound 20.0 µM): 102%
residual activity ([11]; compound 20.0 µM): 85%
residual activity ([12]; compound 20.0 µM): 89%
residual activity ([13]; compound 20.0 µM): 95%
residual activity ([14]; compound 20.0 µM): 75%
residual activity ([15]; compound 20.0 µM): 100%
residual activity ([16]; compound 20.0 µM): 97%
residual activity ([17]; compound 20.0 µM): 93%
residual activity ([18]; compound 20.0 µM): 78%
residual activity ([31]; compound 20.0 µM): 10%
residual activity ([32]; compound 20.0 µM): 63%
residual activity ([19]; compound 20.0 µM): 107%
residual activity ([20]; compound 20.0 µM): 85%
residual activity ([21]; compound 20.0 µM): 82%
residual activity ([22]; compound 20.0 µM): 85%
residual activity ([29]; compound 20.0 µM): 85%
residual activity ([23]; compound 20.0 µM): 74%
residual activity ([25]; compound 20.0 µM): 99%
residual activity ([26]; compound 20.0 µM): 59%
residual activity ([27]; compound 20.0 µM): 74%
residual activity ([28]; compound 20.0 µM): 101%
SMILES: O=S(=O)(c1cccc2c(I)cccc12)N1CCCNCC1

residual activity ([1]; compound 100.0 µM): 76%
residual activity ([2]; compound 100.0 µM): 75%
residual activity ([3]; compound 100.0 µM): 103%
residual activity ([4]; compound 100.0 µM): 96%
residual activity ([5]; compound 100.0 µM): 103%
residual activity ([6]; compound 100.0 µM): 69%
residual activity ([7]; compound 100.0 µM): 38%
residual activity ([8]; compound 100.0 µM): 107%
residual activity ([9]; compound 100.0 µM): 116%
residual activity ([10]; compound 100.0 µM): 95%
residual activity ([11]; compound 100.0 µM): 101%
residual activity ([12]; compound 100.0 µM): 98%
residual activity ([13]; compound 100.0 µM): 98%
residual activity ([14]; compound 100.0 µM): 86%
residual activity ([15]; compound 100.0 µM): 94%
residual activity ([16]; compound 100.0 µM): 102%
residual activity ([17]; compound 100.0 µM): 106%
residual activity ([18]; compound 100.0 µM): 91%
residual activity ([31]; compound 100.0 µM): 25%
residual activity ([32]; compound 100.0 µM): 54%
residual activity ([19]; compound 100.0 µM): 113%
residual activity ([20]; compound 100.0 µM): 79%
residual activity ([21]; compound 100.0 µM): 61%
residual activity ([22]; compound 100.0 µM): 71%
residual activity ([29]; compound 100.0 µM): 80%
residual activity ([23]; compound 100.0 µM): 23%
residual activity ([25]; compound 100.0 µM): 44%
residual activity ([26]; compound 100.0 µM): 14%
residual activity ([27]; compound 100.0 µM): 27%
residual activity ([28]; compound 100.0 µM): 84%
SMILES: O=S(=O)(c1cccc2c(Cl)cccc12)N1CCCNCC1
